Tests used:
large crabgrass = assay: Test A pre-/postemergence herbicide test; assay type: in vivo, Digitaria sanguinalis
How it was run: (§1)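 Visual injury scores on a 0–100 scale (100 = complete control) taken about ten days post-treatment in greenhouse against untreated controls; dash means no result. Treatments: preemergence soil spray and postemergence spray to runoff on one- to two-leaf plants 2 to 10 cm tall, surfactant-containing formulation.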

velvetleaf = assay: Test A pre-/postemergence herbicide test; assay type: in vivo, Abutilon theophrasti
How it was run: as §1

morningglory [1] = assay: Test B pre-/postemergence herbicide test; assay type: in vivo, Ipomoea coccinea; conditions: for Morningglory plant response rating: postemergence, visual rating
How it was run: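 Response was scored visually 13 to 15 days after treatment against untreated greenhouse controls, 0 meaning no effect and 100 complete control. Formulations (solvent mixture plus surfactant) went onto soil after planting, onto foliage of 1- to 4-leaf plants, and onto 2-leaf plants in a flooded paddy set including rice and barnyardgrass.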

rice = assay: Test B pre-/postemergence herbicide test; assay type: in vivo, Oryza sativa; conditions: preemergence
How it was run: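 Seeds were planted and treated preemergence with compounds formulated in a non-phytotoxic solvent mixture containing surfactant, while plants at the 1- to 4-leaf stage (2 to 18 cm) received postemergence sprays. Flooded paddy plants were grown to the 2-leaf stage. After 13 to 15 days in a greenhouse, injury was visually rated 0–100 against untreated controls.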

barnyardgrass = assay: Test B flooded paddy test; assay type: in vivo, Echinochloa crus-galli; conditions: 1000 g ai/ha, visual rating, scale 0 to 100 (0 no effect, 100 complete control), 13 to 15 days
How it was run: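 Visual control ratings, 0–100 versus untreated controls, taken after 13 to 15 days in the greenhouse. Blackgrass received a postemergence spray at the 1- to 4-leaf stage (2–18 cm); ducksalad, umbrella sedge and barnyardgrass were flooded-paddy treated at 2 leaves.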

bermudagrass = assay: Test C pre-/postemergence herbicide test; assay type: in vivo, Cynodon dactylon
How it was run: (§2)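 Visual ratings on a 0–100 scale (100 = complete control) made versus untreated controls after 12 to 14 greenhouse days. Test chemicals, formulated in surfactant-containing non-phytotoxic solvent, applied preemergence to planted seeds or postemergence to 1- to 4-leaf plants (2 to 18 cm).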

morningglory [2] = assay: Test C pre-/postemergence herbicide test; assay type: in vivo, Ipomoea coccinea; parameters: key to Plant response rating, Morningglory: 0 = no effect, 100 = complete control; conditions: for Morningglory plant response rating: Preemergence, 500 g ai/ha
How it was run: as §2

[3] = Postemergence, 500 g ai/ha, 0 to 100 scale, 0 no effect, 100 complete control
[4] = Postemergence, 2000 g ai/ha, 0 to 100 scale, 0 no effect, 100 complete control
[5] = Preemergence, 500 g ai/ha, visual rating, 0 to 100 scale (0 no effect, 100 complete control)
[6] = Preemergence, 2000 g ai/ha, 0 to 100 scale, 0 no effect, 100 complete control
[7] = 125 g ai/ha, scale 0 (no effect) to 100 (complete control)
[8] = preemergence, 125 g ai/ha, 0 to 100 scale, 0 is no effect, 100 is complete control
[9] = 125 g ai/ha, 0 to 100 scale, 0 is no effect, 100 is complete control
[10] = 31 g ai/ha, preemergence, scale 0 to 100
[11] = 125 g ai/ha, scale 0 (no effect) to 100 (complete control), visual, 12 to 14 days, preemergence
[12] = 250 g ai/ha, scale 0 to 100 (0 no effect, 100 complete control), visual, 12 to 14 days, preemergence
[13] = postemergence, 125 g ai/ha, scale 0 to 100
[14] = postemergence, 62 g ai/ha, scale 0 to 100
[15] = Preemergence, 2000 g ai/ha, visual rating, 0 to 100 scale (0 no effect, 100 complete control)
[16] = preemergence, 500 g ai/ha, visual injury, 0 to 100 scale (0 no effect, 100 complete control)
[17] = 500 g ai/ha, visual rating 0-100, 0 no effect, 100 complete control, preemergence
[18] = 500 g ai/ha, scale 0 (no effect) to 100 (complete control)
[19] = 500 g ai/ha, visual rating 0-100, 0 no effect, 100 complete control
[20] = 62 g ai/ha, preemergence, scale 0 to 100, 0 no effect, 100 complete control
[21] = 250 g ai/ha, scale 0-100, preemergence
[22] = Preemergence, 500 g ai/ha, scale 0 to 100, 0 no effect, 100 complete control
[23] = 62 g ai/ha, preemergence, scale 0 to 100
[24] = scale 0 to 100, 0 no effect, 100 complete control

Row | SMILES | Plant response rating, Crabgrass, Large (large crabgrass; [4]) | Crabgrass, Large plant response rating (large crabgrass; [5]) | Plant response rating, Velvetleaf (velvetleaf; [4]) | Morningglory plant response rating (morningglory [1]; [7]) | Plant response rating, Morningglory (morningglory [1]; [8]) | Plant response rating, Rice (rice; [9]) | Barnyardgrass plant response rating (barnyardgrass) | Plant response rating, Bermudagrass (bermudagrass; [11]) | Plant response rating, Bermudagrass (bermudagrass; [12]) | Plant response rating, Morningglory (morningglory [2]; [11]) | Crabgrass, Large plant response rating (large crabgrass; [3]) | Crabgrass, Large plant response rating (large crabgrass; [15]) | Velvetleaf plant response rating (velvetleaf; [3]) | Velvetleaf plant response rating (velvetleaf; [15]) | Velvetleaf plant response rating (velvetleaf; [16]) | Plant response rating, Morningglory (morningglory [1]; [17]) | Morningglory plant response rating (morningglory [1]; [18]) | Plant response rating, Rice (rice; [19]) | Plant response rating, Bermudagrass (bermudagrass; [20]) | Bermudagrass plant response rating (bermudagrass; [22]) | also measured
1 | CCn1nc(C(C)(C)C)cc1C(=O)Nc1ccc(F)c(C(=O)NCCF)c1 [Compound 60] | 55 | 75 | 20 | 10 | 10 | 30 | 60 | 100 | 100 | 5 |  |  |  |  |  |  |  |  |  |  | Plant response rating, Crabgrass, Large (large crabgrass; [3]): 20; Crabgrass, Large plant response rating (large crabgrass; [6]): 95; Velvetleaf plant response rating (velvetleaf; [5]): 65; Velvetleaf plant response rating (velvetleaf; [6]): 95; Plant response rating, Morningglory (morningglory [1]; Postemergence, 500 g ai/ha, visual rating after 13 to 15 days, scale 0 (no effect) to 100 (complete control)): 20; Plant response rating, Bermudagrass (bermudagrass; [10]): 30; Plant response rating (0 = no effect, 100 = complete control), Bermudagrass (bermudagrass; 62 g ai/ha, preemergence): 80; Bermudagrass plant response rating (bermudagrass; Postemergence, 250 g ai/ha, scale 0 to 100): 5; Plant response rating, Bermudagrass (bermudagrass; [13]): 0; Plant response rating, Bermudagrass (bermudagrass; postemergence, 31 g ai/ha, scale 0 to 100): 0; Plant response rating, Bermudagrass (bermudagrass; [14]): 0; Plant response rating, Morningglory (morningglory [2]; [10]): 0; Plant response rating (0 = no effect, 100 = complete control), Morningglory (morningglory [2]; 62 g ai/ha, preemergence): 0; Plant response rating, Morningglory (morningglory [2]; [12]): 10; Plant response rating, Morningglory (morningglory [2]; Postemergence, 250 g ai/ha, scale 0 to 100, 0 no effect, 100 complete control): 10; Plant response rating, Morningglory (morningglory [2]; [13]): 10; Plant response rating, Morningglory (morningglory [2]; [14]): 10
2 | C=CCNC(=O)c1cccc(NC(=O)c2sc(C(C)(C)C)nc2C)c1 [Compound 202] | 65 |  | 30 | 20 |  |  | 40 | 85 |  | 55 | 30 | 100 | 30 | 85 | 35 | 30 | 40 | 30 | 20 | 100 | Crabgrass, Large plant response rating (large crabgrass; [16]): 85; Morningglory plant response rating (0 to 100 scale) (morningglory [1]; 125 g ai/ha, 0 = no effect, 100 = complete control, preemergence): 0; Rice plant response rating (0 to 100 scale) (rice; 125 g ai/ha, 0 = no effect, 100 = complete control): 10; Plant response rating, Bermudagrass (bermudagrass; [21]): 95; Plant response rating, Morningglory (morningglory [2]; [23]): 0; Plant response rating, Morningglory (morningglory [2]; [21]): 80; Morningglory plant response rating (morningglory [2]; [24]): 85
3 | CCNC(=O)c1cc(C)nc(NC(=O)c2cc(C(C)(C)C)nn2CC)c1 [Compound 149] | 75 | 95 | 40 | 20 | 20 | 20 | 70 | 90 | 90 | 5 | 40 | 100 | 30 | 25 | 0 | 40 | 40 | 30 | 30 | 95 | Plant response rating, Morningglory (morningglory [2]; [23]): 0; Morningglory plant response rating (morningglory [2]; [24]): 60

— US20060069132A1, “Azolecarboxamide herbicides” (priority 2004, published 2006)
